Laboratory results taken from PMC4912613, “A broad analysis of resistance development in the malaria parasite” (Nature Communications, 2016).

How the values were obtained:
[1] = tested on: TM90C2A (DHFR, folate pathway; compared with 3D7); test: Cross-resistance EC50 assay, TM90C2A; type: cell-based; details: Plasmodium falciparum, 48 h, read-out: TM90C2A (3D7 Parent) Average EC50
Source text: (§1) To evaluate potential overlapping activity against known antimalarial drug targets, we performed dose-response studies with each compound against our assembled set of drug-resistant lines and their corresponding parents, in an asexual blood stage proliferation assay (Table 1). Comparisons were made to the drug-sensitive strain 3D7 when a parent was unavailable (TM90C2A, W2 and Dd2). As laboratories conducted EC50 assays with different strains and protocols, all comparisons were made between assays from the same laboratory and under the same assay conditions. Compounds displaying >5-fold EC50 shifts relative to the parent or sensitive strain were flagged as having potentially non-novel targets. Average fold shifts per strain ranged from 0.82 to 2.34, with a median of 1.23 indicating there was not common resistance to any one resistant clone. No resistance patterns were observed when classifying the compounds based on chemical structure, but this was not surprising given the diversity of compounds chosen. On the other hand, given that these confirmed compounds were derived from larger unconfirmed hit lists to which some filtration criteria may have been applied (for example, elimination of obvious dihydrofolate reductase inhibitors[32]), some[10][11][12][13] pre-existing bias may exist in the set.
The 48-h assay was carried out in a 96-well format following standard methods using the ^3H-hypoxanthine incorporation assay. The raw EC50 values corresponding to this assay can be found in Supplementary Data 3. Briefly, this assay relies on the parasite incorporation of labelled hypoxanthine that is proportional to P. falciparum growth. A culture of parasitized RBCs (0.5% parasitemia with a percentage of ring stage higher than 70% of total parasitemia, 2.0% haematocrit) in RPMI-1640, […] and 5 μM hypoxanthine was exposed to drug serial dilutions. Plates were incubated for 24 h at 37 °C, 5% CO2, 5% O2 and 90% N2. After 24 h of incubation, ^3H-hypoxanthine was added and plates were incubated for an additional 24-h period. After that, parasites were harvested on a glass fibre filter using a TOMTEC Cell Harvester 96. Filters were dried and melt-on scintillator sheets were used to determine the incorporation of ^3H-hypoxanthine. Radioactivity was measured using a microbeta counter. Data were normalized using the incorporation of the positive (parasitized RBCs without drug) and negative (same culture with artesunate at 2 μM) controls. All assays were conducted in triplicate using three independently grown cultures, and EC50 values were determined using the XLfit add-in module for Excel (version 2.3.1) from Grafit (version 5.3.1.3), where parameter h is the assay hill slope, x is the compound concentration and y is the inhibition of growth effect. The XLfit equation is: […]
(§2) EC50 values for each strain were compared with those of the corresponding parent strain to determine fold-shift changes and identify resistance. To minimize the cause variance between assays, all comparisons were conducted between strains assayed under identical conditions. A one-way ANOVA followed by a Dunnet's post-test was conducted in GraphPad Prism to identify significant changes between the parent and resistant strain.

[2] = tested on: NITD609-R2 (PfATP4 T418N and P990R, parent Dd2); test: Cross-resistance EC50 assay, NITD609-R2; type: cell-based; details: Plasmodium falciparum, SYBR green 72 hour assay, asynchronized parasites, 96-well or 1536-well format
Source text: as §1, with “set. […]” for “set.”
Alternatively, a SYBR Green-based proliferation approach was used for the 72-h assay, as previously described. Briefly, a culture of either synchronized or asynchronous parasitized RBCs (0.3% parasitemia and 4% haematocrit) in screening medium (identical to supplemented medium above except no serum was added) was exposed to serial drug dilutions. Plates were incubated at 37 °C and gassed with 93% N2, 4% CO2 and 3% O2 for 72 h. Following incubation, 10 × SYBR Green I (Invitrogen; supplied in 10,000 × concentration) in lysis buffer ([…], 5 mM EDTA, 0.16% Saponin wt per vol and 1.6% Triton X vol per vol) was added to the wells and the plates were incubated overnight at room temperature before plate reading. EC50 assays were repeated three times, taking the average EC50 value from each assay set, and removing any outliers using a single iteration of Grubbs' test, eliminating values with z-scores above the critical z-value (α=0.05). The raw EC50 values for synchronized parasites assayed in a 384-well format are listed in Supplementary Data 4. The raw EC50 values for asynchronous parasites assayed in a 96 or 1536-well format are listed in Supplementary Data 5.
as §2

[3] = tested on: P. falciparum; test: Rate of killing (parasite viability) assay; type: cell-based, Plasmodium falciparum; details: profile compared with chloroquine, pyrimethamine, atovaquone; 48 h treatment
Description: To identify whether selection success could be predicted by compound speed of action, and to gain a greater insight into the potential mechanisms of action, assays were performed to test the killing rate (Supplementary Data 1)[33]. To quantify the killing rate, viability time-course profiles for each compound were compared with antimalarials known to have fast (chloroquine), moderate (pyrimethamine) or slow (atovaquone) rate of action. These rates were then compared with other compound characteristics, including cross-resistance profile, selection success, potency and structural characteristics to identify any possible trends. […] One compound's rate of killing, MMV666080, was unidentifiable due to compound availability. No correlation was seen between compound structure and speed of action. Additionally, there was no correlation found between killing rate and compound potency against 3D7, nor between potency and selection success (Supplementary Fig. 2).
Rate of killing was determined for each compound following a previously described methodology, which uses the invasion of fresh erythrocytes as surrogate of parasite viability. Briefly, parasites were treated with compounds for 48 h. Compound was washed out and fresh-labelled erythrocytes added to the treated parasites. Double stained erythrocytes (RBC label plus parasite DNA label) were quantified and per cent of survival determined.

Structure (SMILES) | EC50 [1] | EC50 [2] | Killing Rate [3]
COc1ccc2c3c([nH]c2c1)[C@H](CO)N(C(C)=O)CC31CCN(C(=O)Nc2ccccc2F)CC1 [MMV673482] | 352 nM | 0.007 µM | PYR (moderate)
CN(C)Cc1ccc(-c2cc3c(-c4ccc(CN(C)C)cc4)ccnc3[nH]2)cc1.O=C(O)C(F)(F)F [MMV022224] | 738 nM | 0.406 µM | CQ (fast)
COc1cc(C(=O)ON=C(N)Cc2cccc3ccccc23)cc(OC)c1OC [MMV666687] | 180 nM | 0.535 µM | CQ (fast)
O=C(Nc1ccc(Cl)c(Cl)c1)Nc1ccc(Cl)c(Cl)c1 [MMV665852] | 566 nM | 1.75 µM | CQ (fast)
Nc1ccc(-c2nc3cc(Oc4ccc(Oc5ccc6[nH]c(-c7ccc(N)cc7)nc6c5)cc4)ccc3[nH]2)cc1 [MMV011895] | 356 nM | 0.56 µM | CQ (fast)
CC(C)c1cccc(C(NC(=O)C2Cc3ccccc3CN2C(=O)c2cccc(N3CCOCC3)c2)C2CCCC2)c1 (stereo not shown) [MMV028038] | 287 nM | 0.612 µM | ATQ (slow)
FC(F)(F)c1cccc(Nc2nc3ccccc3nc2Nc2cccc(C(F)(F)F)c2)c1 [MMV665794] | 73 nM | 0.321 µM | PYR (moderate)
c1cc(-c2cnc3ccc(-c4ccc(N5CCOCC5)cc4)nn23)ccn1 [MMV668311] | 86 nM | 0.016 µM | CQ (fast)
CCN(CC)CCn1c(=N)n(CC(O)c2ccc(Cl)c(Cl)c2)c2ccccc21.Cl (stereo not shown) [MMV000248] | 466 nM | 0.252 µM | CQ (fast)
COc1ccc(NC(=O)N2CCCCN3[C@H](CN)[C@H](c4ccc(C#Cc5ccccc5)cc4)[C@@H]3C2)cc1 [BRD1095] | – | 0.001 µM | PYR/CQ (moderate)
Cc1cc(Nc2ccc(OCc3ccccc3)cc2)nc2cc(O)ccc12 [MMV007181] | 278 nM | 0.128 µM | PYR/CQ (moderate)
CC(NCc1ccccc1)c1cc(Cl)ccc1O (stereo not shown) [MMV665789] | 1480 nM | 0.261 µM | PYR (moderate)
COc1cc2cc(C(=O)Nc3ccccc3)c(N)nc2cc1OC [MMV006767] | 2870 nM | 0.106 µM | PYR (moderate)
COc1ccc(N2CCN(C(CNC(=O)C3CCCCC3)c3ccc4c(c3)OCO4)CC2)cc1 (stereo not shown) [MMV019662] | 209 nM | 0.512 µM | ATQ (slow)
CN1CCN(c2ccc(Nc3c4ccccc4nc4ccccc34)cc2)CC1 [MMV006172] | 162 nM | 0.242 µM | CQ (fast)
CCC(C)NCC(O)(c1ccc(Cl)cc1)c1ccc(Cl)cc1 (stereo not shown) [MMV665928] | 432 nM | 0.18 µM | CQ (fast)
OC(CNC1CCCCC1)Cn1c2ccc(I)cc2c2cc(I)ccc21 (stereo not shown) [MMV665882] | 207 nM | 0.046 µM | ATQ (slow)

Structure (SMILES) | EC50 [1] | EC50 [2] | Killing Rate [3]
Brc1ccc(Nc2nc3ccccc3nc2Nc2ccc(Br)cc2)cc1 [MMV007224] | 154 nM | 0.754 µM | ATQ (slow)
Cc1nc2ccc3ccc(CNc4ccc(C(=O)CC(CCC(=O)O)C(=O)O)cc4)cc3c2c(=O)[nH]1.Cl (stereo not shown) [MMV027634] | 64 nM | 0.14 µM | ATQ (slow)
CNCc1ccc2nc(-c3coc(Cc4cc(Cl)ccc4OCC(C)C)n3)[nH]c2c1.Cl.Cl [MMV026596] | 267 nM | 0.206 µM | PYR (moderate)
COc1ccccc1CNC(=O)CCn1c(=O)[nH]c2ccsc2c1=O [MMV019066] | 1620 nM | 0.014 µM | ATQ (slow)
CN(C)CCCNCc1ccc(-c2ccc(Cl)c(Cl)c2)o1 [MMV673964] | 569 nM | 0.756 µM | CQ (fast)
Cc1c(C)n(Cc2ccc(F)cc2)c2ccc(C(=O)NCc3ccco3)cc12 [MMV008149] | 908 nM | 0.934 µM | ATQ (slow)
Nc1ccc(-c2nc3cc(Cc4ccc5[nH]c(-c6ccc(N)cc6)nc5c4)ccc3[nH]2)cc1 [MMV665943] | 298 nM | 0.334 µM | CQ (fast)
COc1ccc(C(=O)C2CC2c2ccc(Cl)cc2)cc1 (stereo not shown) [MMV665924] | 1600 nM | 1.69 µM | CQ (fast)
c1cncc(-c2cc(N3CCC(CN4CCOCC4)CC3)nc(-c3ccncc3)n2)c1 [MMV668399] | 86 nM | 0.652 µM | PYR (moderate)
Cc1ccc(S(=O)(=O)n2cc(-c3ccnc(N)c3)c3cc(Br)cnc32)cc1 [MMV024114] | 1050 nM | 1.86 µM | PYR/CQ (moderate)
Cl.c1ccc2c(NCCCCCCNc3c4c(nc5ccccc35)CCCC4)c3c(nc2c1)CCCC3 [MMV019555] | 280 nM | 0.188 µM | CQ (fast)
CCCN(CCC)CC(O)COc1ccccc1C(=O)Nc1ccccc1 (stereo not shown) [MMV006455] | 377 nM | 0.258 µM | CQ (fast)
Cc1ccc(Cn2c(N3CCC(C(=O)NCc4cccs4)CC3)nc3ccccc32)cc1 [MMV007564] | 655 nM | 0.705 µM | PYR/CQ (moderate)
Nc1ncc(-c2cn[nH]c2)cc1-c1nc2ccc(F)cc2[nH]1 [MMV023367] | 445 nM | 1.6 µM | CQ (fast)
O=C(NC(c1ccccc1)c1ccc2cccnc2c1O)c1ccccc1 (stereo not shown) [MMV666080] | 860 nM | 1.19 µM | –
CCCOCc1cc(CN2CCN(c3cccc(Cl)c3)CC2)c(O)c2ncccc12 [MMV000787] | 1040 nM | 1.25 µM | CQ (fast)
Cc1ccc(Oc2ncccc2C(=O)Cc2cccc3cccnc23)c(C)c1 [MMV020746] | 201 nM | 2.14 µM | ATQ (slow)
